According to US8883789B2, “Piperazine derivatives and their use as positive allosteric modulators of mGluR5 receptors” (Boehringer Ingelheim International GmbH, priority 2011, dated 2014):

Molecular target: T1, human recombinant mGluR5 (Homo sapiens, UniProt P41594)
T1 construct: expressed in transfected cells; hygromycin and geneticin selection
Experiment: positive modulation of mGluR5, calcium based FLIPR assay
Conditions: HEK 293 cell line expressing human recombinant mGluR5; Ca2+ peak height after glutamate at approximately 5% basal stimulation; nonlinear regression
Protocol: The positive modulation of mGluR5 is measured in a HEK 293 cell line expressing human recombinant mGluR5 and is detected with calcium based FLIPR assay. The cells are cultured with DMEM supplemented with 10% FCS, 2 μg/mL tetracycline, 100 μg/mL hygromycin and 500 μg/mL geneticin. The cell culture media is exchanged for tetracycline-free cell culture media 3-7 days before the assay. One day before the assay the cell culture medium is exchanged to DMEM without glutamine and phenol red and supplemented with 10% FCS, 100 μg/mL hygromycin and 500 μg/mL geneticin. On the assay day, the medium of the subconfluent cultures is removed and the cells are detached by addition of 2.5 ml EDTA (0.02%) per 175 cm2 culture flask for 1 minute. The cells are resuspend in Ringer solution (140 mM NaCl, 5 mM KCl, 2.5 mM CaCl2, 1.5 mM MgCl2, 5 mM Glucose, 10 mM Hepes; adjusted to pH 7.4 with NaOH), pooled and Ringer solution added to adjust the volume to 50 mL. The cell suspension is centrifuged for […] at 1500 U/min (425 g). The supernatant is removed and the cells washed a second time with 50 ml fresh Ringer solution and centrifuged again as before. The supernatant is again removed and the pellet resuspended in Ringer solution to 1,000,000 cells/ml (1×10^6 cells/mL). The cells are plated onto BD BioCoat Poly-D-Lysine 384 well plates (20.000 cells/well; 20 μl/well). The lid covered plates are then incubated until use at 37° C./10% CO2. For dye loading, 20 μl of Calcium-4 assay kit solution (prepared according to the manufacturer's description in Ringer solution) are added to the cells and the plates are incubated for 80 min 37° C. and then 10 min at room temperature.
Controls, Compound Dilution and Assay Execution:
Each assay plate contained wells with “high” and “low” controls:
Low controls 1% DMSO/ringer solution+basal glutamate activation (defined as 100% CTL).
High controls 10 μM CDPPB+basal glutamate activation (defined as 200% CTL).
Test compounds are dissolved and diluted in DMSO to 100-fold the desired concentrations. In a second step, the compounds are diluted in Ringer solution such that the compounds are 4-fold more concentrated than the desired final assay concentration. The final DMSO concentration was 1%.
20 μl of each compound solution are then transferred to the assay plate and the Ca2+ kinetic is measured to determine any intrinsic compound activity. After 5 min incubation in the FLIPR device, the second stimulation with 20 μl of glutamate in Ringer solution (glutamate concentration adjusted to approximately 5% basal stimulation of the maximal possible glutamate effect) is added and the kinetic Ca2+ response of the wells was measured for the modulation effect.
The peak height of the Ca release related fluorescence signal (9-66) is used for the EC50.
The EC50 of the modulation is calculated over a nonlinear regression with GraphPad Prism (Table 1).

T1 sequence (P41594 21-1212): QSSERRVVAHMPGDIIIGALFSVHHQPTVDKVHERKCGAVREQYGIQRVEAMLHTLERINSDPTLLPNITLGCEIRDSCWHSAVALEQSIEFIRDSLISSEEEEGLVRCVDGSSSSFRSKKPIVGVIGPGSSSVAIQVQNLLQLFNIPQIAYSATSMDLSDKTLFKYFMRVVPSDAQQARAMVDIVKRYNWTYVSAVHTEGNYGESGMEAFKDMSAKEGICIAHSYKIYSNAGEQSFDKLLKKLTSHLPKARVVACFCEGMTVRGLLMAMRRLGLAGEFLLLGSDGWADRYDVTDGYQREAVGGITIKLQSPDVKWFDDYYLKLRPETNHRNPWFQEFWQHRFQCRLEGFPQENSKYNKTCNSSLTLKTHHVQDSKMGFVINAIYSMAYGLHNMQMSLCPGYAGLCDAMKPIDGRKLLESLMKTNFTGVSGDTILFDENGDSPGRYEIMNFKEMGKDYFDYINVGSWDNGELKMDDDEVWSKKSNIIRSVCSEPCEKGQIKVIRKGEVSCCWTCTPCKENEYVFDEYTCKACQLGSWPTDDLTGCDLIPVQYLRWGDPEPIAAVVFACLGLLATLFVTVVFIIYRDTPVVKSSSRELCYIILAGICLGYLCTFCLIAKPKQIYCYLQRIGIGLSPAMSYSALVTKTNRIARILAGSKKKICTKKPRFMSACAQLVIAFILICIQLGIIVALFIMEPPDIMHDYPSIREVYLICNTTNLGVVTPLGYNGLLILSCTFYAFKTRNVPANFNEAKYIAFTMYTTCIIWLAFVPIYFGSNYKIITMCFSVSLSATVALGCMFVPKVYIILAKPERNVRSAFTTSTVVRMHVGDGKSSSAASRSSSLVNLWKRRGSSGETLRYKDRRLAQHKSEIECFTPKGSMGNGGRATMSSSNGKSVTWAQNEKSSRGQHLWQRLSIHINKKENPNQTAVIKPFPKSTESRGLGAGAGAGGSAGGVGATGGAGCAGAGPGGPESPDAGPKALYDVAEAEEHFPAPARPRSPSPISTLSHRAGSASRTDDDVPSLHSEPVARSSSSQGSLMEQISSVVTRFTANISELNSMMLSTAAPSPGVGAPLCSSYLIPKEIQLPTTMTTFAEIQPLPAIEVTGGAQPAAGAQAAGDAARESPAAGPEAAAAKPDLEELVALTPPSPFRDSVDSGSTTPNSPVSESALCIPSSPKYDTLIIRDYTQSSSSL

| Structure (SMILES) | EC50 |
| --- | --- |
| Cc1ccc2oc(C(=O)N3CCN(C(=O)c4ncn(-c5cccc(Cl)c5)n4)C(C)(C)C3)c(C)c2c1 [Example 50] | 294 nM |
| COc1ccc2c(OC)nc(C(=O)N3CCN(C(=O)c4ncn(-c5cccc(Cl)c5)n4)C(C)(C)C3)cc2c1 [Example 31] | 160 nM |
| CC1(C)CN(C(=O)c2cc3ccccc3cn2)CCN1C(=O)c1ncn(-c2cccc(Cl)c2)n1 [Example 35] | 350 nM |
| CC(C)c1cccc(C(=O)N2CCN(C(=O)c3ncn(-c4cccc(Cl)c4)n3)C(C)(C)C2)c1 [Example 11, [1-(3-Chloro-phenyl)-1H-[1,2,4]-triazol-3-yl]-[4-(3-isopropyl-benzoyl)-2,2-dimethyl-piperazin-1-yl]methanone] | 19 nM |
| COc1cccc(C(=O)N2[C@H](C)CN(C(=O)c3ncn(-c4cccc(C)c4)n3)C[C@@H]2C)n1 [Example 263, (2R*,6S*)-1-[(6-Methoxypyridin-2-yl)carbonyl]-2,6-dimethyl-4-{[1-(3-methylphenyl)-1H-[1,2,4]-triazol-3-yl]carbonyl}piperazine] | 251 nM |
| COc1cccc(C(=O)N2CCN(C(=O)c3ncn(-c4cccc(Br)c4)n3)C(C)C2)n1 (centres unmarked) [Example 299] | 376 nM |
| COc1cccc(C(=O)N2CCN(C(=O)c3ncn(-c4cccc(Cl)c4)n3)[C@H](C)C2)n1 [Example 301, (R)-{4-[1-(3-Chloro-phenyl)-1H-[1,2,4]triazole-3-carbonyl]-3-methyl-piperazin-1-yl}-(6-methoxy-pyridin-2-yl)-methanone] | 162 nM |
| COc1ccc2c(C)c(C(=O)N3CCN(C(=O)c4ncn(-c5cccc(Cl)c5)n4)C(C)C3)oc2c1 (centres unmarked) [Example 278] | 929 nM |
| CC1(C)CN(C(=O)c2cccc(Cl)c2)CCN1C(=O)c1ncn(-c2cccc(F)c2)n1 [Example 190] | 57 nM |
| CC1(C)CN(C(=O)c2cc(Cl)cc(Br)c2)CCN1C(=O)c1ncn(-c2ccccc2)n1 [Example 125] | 83 nM |
| CC1CN(C(=O)c2ncn(-c3cccc(Cl)c3)n2)CCN1C(=O)c1cccc(-c2nccs2)c1 (centres unmarked) [Example 218] | 422 nM |
| COc1ccc(C(=O)N2CCN(C(=O)c3ncn(-c4ccccc4)n3)C(C)(C)C2)s1 [Example 119] | 695 nM |
| CCCOc1nc(C(=O)N2CCN(C(=O)c3ncn(-c4ccccc4)n3)C(C)(C)C2)cc2ccccc12 [Example 99] | 28 nM |
| Cc1cccc(-n2cnc(C(=O)N3CCN(C(=O)c4cc(Cl)c5c(c4)OCCO5)C(C)C3)n2)c1 (centres unmarked) [Example 239] | 326 nM |
| Cc1c(C(=O)N2CCN(C(=O)c3ncn(-c4cccc(Cl)c4)n3)C[C@H]2C)oc2ccc(F)cc12 [Example 250] | 371 nM |
| COc1cc(Br)cc(C(=O)N2CCN(C(=O)c3ncn(-c4cccc(Cl)c4)n3)C(C)(C)C2)n1 [Example 12] | 19 nM |
| CC1(C)CN(C(=O)c2cccc(C3CC3)n2)CCN1C(=O)c1nnn(-c2cccc(Cl)c2)n1 [Example 182] | 28 nM |
| CC1CN(C(=O)c2ncn(-c3cccc(Cl)c3)n2)CCN1C(=O)c1cccc(-c2ccn(C)n2)c1 (centres unmarked) [Example 225] | 498 nM |
| CCC1CN(C(=O)c2ncn(-c3cccc(F)c3)n2)CCN1C(=O)c1cccc(OC)n1 (centres unmarked) [Example 259] | 231 nM |
| COc1cc(Cl)cc(C(=O)N2CCN(C(=O)c3ncn(-c4cccc(Cl)c4)n3)C(C)(C)C2)n1 [Example 17] | 45 nM |
| CC1(C)CN(C(=O)c2cccc(Cl)c2)CCN1C(=O)c1nnn(-c2ccccc2)n1 [Example 187] | 24 nM |
| Cc1c(C(=O)N2CCN(C(=O)c3ncn(-c4cccc(Cl)c4)n3)CC2C)oc2ccc(F)cc12 (centres unmarked) [Example 212] | 568 nM |
| CC1CN(C(=O)c2cc3c(Cl)cccc3s2)CCN1C(=O)c1ncn(-c2cccc(Cl)c2)n1 (centres unmarked) [Example 268] | 327 nM |
| COc1nc(C(=O)N2CCN(C(=O)c3ncn(-c4ccccc4)n3)C(C)(C)C2)cc2cc(F)c(F)cc12 [Example 148] | 113 nM |

| Structure (SMILES) | EC50 |
| --- | --- |
| CC(=O)c1cccc(C(=O)N2CCN(C(=O)c3ncn(-c4ccccc4)n3)C(C)(C)C2)n1 [Example 124] | 145 nM |
| Cc1cccc(-n2cnc(C(=O)N3CCN(C(=O)c4cccc(Cl)c4)CC3(C)C)n2)c1 [Example 188] | 33 nM |
| COc1cc(C(=O)N2CCN(C(=O)c3ncn(-c4cccc(Cl)c4)n3)C(C)(C)C2)ccc1C [Example 46] | 88 nM |
| C[C@H]1CN(C(=O)c2ncn(-c3cccc(Cl)c3)n2)CCN1C(=O)c1cc(Br)c(Br)o1 [Example 254] | 157 nM |
| CC1CN(C(=O)c2ccc3ccn(C)c3c2)CCN1C(=O)c1ncn(-c2cccc(Cl)c2)n1 (centres unmarked) [Example 272] | 350 nM |
| CC1(C)CN(C(=O)c2cc3ccccc3c(C3CC3)n2)CCN1C(=O)c1ncn(-c2cccc(Cl)c2)n1 [Example 204] | 129 nM |
| CC1(C)CN(C(=O)c2cc(C(F)(F)F)ccn2)CCN1C(=O)c1ncn(-c2cccc(Cl)c2)n1 [Example 89] | 168 nM |
| CC1(C)CN(C(=O)c2cc(Cl)cc(Cl)c2)CCN1C(=O)c1ncn(-c2ccccc2)n1 [Example 153] | 101 nM |
| O=C(c1cccc(Cl)c1)N1CCN(C(=O)c2ncn(-c3cccc(Cl)c3)n2)C2(CCCC2)C1 [Example 308] | 367 nM |
| Cn1ccc2cc(C(=O)N3CCN(C(=O)c4ncn(-c5cccc(Cl)c5)n4)C(C)(C)C3)ccc21 [Example 82] | 120 nM |
| COc1cccc(C(=O)N2CCN(C(=O)c3ncn(-c4cccc(Cl)c4)n3)C(C)(C)C2)n1 [Example 18] | 48 nM |
| Cn1nc(C(=O)N2CCN(C(=O)c3ncn(-c4cccc(Cl)c4)n3)C(C)(C)C2)c2ccccc21 [Example 77] | 181 nM |
| COCC1(C)CN(C(=O)c2cccc(OC)n2)CCN1C(=O)c1ncn(-c2cccc(Cl)c2)n1 (centres unmarked) [Example 311] | 577 nM |
| COc1ccc2c(C)c(C(=O)N3CCN(C(=O)c4ncn(-c5cccc(Cl)c5)n4)CC3C)oc2c1 (centres unmarked) [Example 213] | 817 nM |
| COc1cc(C)cc(C(=O)N2CCN(C(=O)c3ncn(-c4cccc(Cl)c4)n3)C(C)(C)C2)n1 [Example 22] | 58 nM |
| C[C@@H]1CN(C(=O)c2ncn(-c3cccc(Cl)c3)n2)CCN1C(=O)c1cc(Br)c(Br)o1 [Example 249] | 198 nM |
| C[C@H]1CN(C(=O)c2ncn(-c3cccc(F)c3)n2)CCN1C(=O)c1cc(Br)c(Br)o1 [Example 256, (S)-[4-(4,5-Dibromo-furan-2-carbonyl)-3-methyl-piperazin-1-yl]-[1-(3-fluoro-phenyl)-1H-[1,2,4]triazol-3-yl]-methanone] | 205 nM |
| CC1(C)CN(C(=O)c2cccc(-c3cnco3)c2)CCN1C(=O)c1ncn(-c2ccccc2)n1 [Example 127] | 296 nM |
| COCCOc1nc(C(=O)N2CCN(C(=O)c3ncn(-c4cccc(Cl)c4)n3)C(C)(C)C2)cc2ccccc12 [Example 34] | 221 nM |
| Cc1c(C(=O)N2CCN(C(=O)c3ncn(-c4cccc(Cl)c4)n3)CC2C)oc2c(F)cccc12 (centres unmarked) [Example 232] | 1160 nM |
| Cc1oc2ccc(Br)cc2c1C(=O)N1CCN(C(=O)c2ncn(-c3cccc(F)c3)n2)C(C)(C)C1 [Example 1, [4-(5-Bromo-2-methyl-benzofuran-3-carbonyl)-2,2-dimethyl-piperazin-1-yl]-[1-(3-fluoro-phenyl)-1H-[1,2,4]triazol-3yl]-methanone] | 39 nM |
| COCc1c(C(=O)N2CCN(C(=O)c3ncn(-c4ccccc4)n3)C(C)(C)C2)oc2ccccc12 [Example 107] | 108 nM |
| Cc1c(C(=O)N2CCN(C(=O)c3ncn(-c4ccccc4)n3)C(C)(C)C2)oc2ccc(F)cc12 [Example 108] | 112 nM |
